Assay results from ChEMBL document CHEMBL1201862, “PubChem BioAssay data set” (2004).
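Cells were grown in 96-well plates and exposed to each compound for 48 hours at five concentrations; endpoints were interpolated linearly between bracketing concentrations, or set to the highest concentration if not reached. GI50 = concentration required for 50% inhibition of growth.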 Calls of active or inactive are those of the source. No stated cut-off is given here; in the data, active = GI50 up to about 1.1 µM and inactive = higher.

Experiments:
Experiment in all cases: NCI tumour cell line growth inhibition, 48 h
Malme-3M = test system: Malme-3M
SF-295 = test system: SF-295
BT-549 = test system: BT-549
IGROV-1 = test system: IGROV-1
MCF7 = test system: MCF7
DU-145 = test system: DU-145
TK-10 = test system: TK-10
SK-MEL-2 = test system: SK-MEL-2
NCI-H226 = test system: NCI-H226
T47D = test system: T47D
OVCAR-5 = test system: OVCAR-5
HCT-116 = test system: HCT-116
OVCAR-4 = test system: OVCAR-4
SK-MEL-5 = test system: SK-MEL-5
UO-31 = test system: UO-31
UACC-257 = test system: UACC-257
EKVX = test system: EKVX
A549 = test system: A549
HOP-62 = test system: HOP-62
PC-3 = test system: PC-3

Measured: GI50

COC(=O)C(Cc1c(C2Nc3ccccc3C2CC(NC(=O)CNC(C)=O)C(=O)OC)[nH]c2ccccc12)NC(=O)CNC(C)=O (centres undefined)
inactive: Malme-3M > 100 µM | SF-295 > 100 µM | BT-549 > 100 µM | IGROV-1 > 100 µM | MCF7 > 100 µM | DU-145 > 100 µM | TK-10 > 100 µM | SK-MEL-2 > 86.9 µM | NCI-H226 > 100 µM | T47D > 100 µM | OVCAR-5 > 100 µM | HCT-116 > 100 µM | OVCAR-4 > 100 µM | SK-MEL-5 > 100 µM | UO-31 > 100 µM | UACC-257 > 100 µM | EKVX > 100 µM | A549 > 100 µM

Nc1ncnc2c1ncn2-c1ccc([N+](=O)[O-])cn1
inactive: SF-295 > 100 µM | BT-549 > 100 µM | MCF7 > 100 µM | DU-145 > 100 µM | TK-10 > 100 µM | HOP-62 > 100 µM | SK-MEL-2 > 100 µM | NCI-H226 > 100 µM | T47D > 100 µM | OVCAR-5 > 100 µM | HCT-116 > 100 µM | OVCAR-4 > 100 µM | SK-MEL-5 > 100 µM | UO-31 > 100 µM | UACC-257 > 100 µM | A549 > 100 µM

O=C(OCC(Cl)(Cl)Cl)N1CC[C@H](C2CCCCC2)C1
inactive: SF-295 16.2 µM | BT-549 24.2 µM | IGROV-1 16.4 µM | MCF7 18.6 µM | DU-145 15.8 µM | TK-10 18.8 µM | HOP-62 18.3 µM | SK-MEL-2 15.8 µM | T47D 15.3 µM | OVCAR-5 18.9 µM | HCT-116 14.6 µM | OVCAR-4 16.6 µM | SK-MEL-5 14.9 µM | UO-31 17.6 µM | UACC-257 19.1 µM | EKVX 16.9 µM | PC-3 21.6 µM | A549 14.9 µM

CC(C)(C)NC1C2CCC(C)(C1O)C2(C)C (centres undefined)
inactive: Malme-3M > 100 µM | SF-295 > 100 µM | BT-549 > 100 µM | IGROV-1 > 100 µM | MCF7 4.14 µM | DU-145 > 100 µM | TK-10 > 100 µM | HOP-62 > 100 µM | SK-MEL-2 > 100 µM | T47D > 100 µM | OVCAR-5 > 100 µM | HCT-116 > 100 µM | OVCAR-4 > 100 µM | SK-MEL-5 > 100 µM | UO-31 > 100 µM | UACC-257 > 100 µM | EKVX > 100 µM | PC-3 > 100 µM | A549 > 100 µM

CCCCCCCCCCCCCCCCCCNc1ccn(C2OC(CO)C(OP(=O)(O)OCC3CCC(n4ccc(N)nc4=O)O3)C2O)c(=O)n1 (centres undefined)
inactive: Malme-3M 21.1 µM | SF-295 > 100 µM | BT-549 30.8 µM | IGROV-1 27.2 µM | DU-145 > 100 µM | TK-10 42.1 µM | HOP-62 > 100 µM | SK-MEL-2 > 100 µM | NCI-H226 > 100 µM | T47D 83.4 µM | OVCAR-5 57.7 µM | HCT-116 66.5 µM | OVCAR-4 93.8 µM | SK-MEL-5 > 100 µM | UO-31 22.2 µM | UACC-257 > 100 µM | EKVX > 100 µM | PC-3 17.4 µM | A549 > 100 µM

Cn1c(=O)nc2n(CCO)c(-c3ccccc3)c(-c3ccccc3)nc-2c1=O
inactive: Malme-3M > 100 µM | SF-295 > 100 µM | BT-549 > 100 µM | IGROV-1 > 100 µM | DU-145 > 100 µM | TK-10 > 100 µM | HOP-62 > 100 µM | SK-MEL-2 > 100 µM | NCI-H226 > 100 µM | T47D > 100 µM | OVCAR-5 > 100 µM | HCT-116 > 100 µM | OVCAR-4 > 100 µM | SK-MEL-5 > 100 µM | UO-31 > 100 µM | UACC-257 > 100 µM | EKVX > 100 µM | PC-3 > 100 µM | A549 > 100 µM
